Source: the Kinase Knowledgebase extract (Sharma et al. 2016)

Biological target: PIK3CB;PIK3CG;PIK3CD;PIK3CA (human) (UniProt P48736)
Test: Inhibition of PIK3CA/PIK3CB/PIK3CD/PIK3CG Kinase Activity

IC50 [µM]	SMILES
0.01	COc1ccc(CC2CCS(=O)(=O)CC2)c(Nc2nc3ccccc3nc2NS(=O)(=O)c2ccc(CN(C)C)cc2)c1
0.1	COc1ccc(CCOC(=O)[C@@H](N)C(C)C)c(Nc2nc3ccccc3nc2NS(=O)(=O)c2cn(C)cn2)c1
0.011	COc1ccc(CCCN(C)C)c(Nc2nc3ccccc3nc2NS(=O)(=O)c2cn(C)cn2)c1
1.84	COc1ccc(CCOC(=O)[C@@H](NC(=O)OCC2c3ccccc3-c3ccccc32)C(C)C)c(Nc2nc3ccccc3nc2NS(=O)(=O)c2cn(C)cn2)c1
0.088	CCS(=O)(=O)Nc1nc2ccccc2nc1Nc1cc(OC)ccc1CCS(C)(=O)=O
0.286	COc1ccc(CCO)c(Nc2nc3ccccc3nc2NS(=O)(=O)c2c(C)noc2C)c1
0.035	COc1ccc(CC2CCSCC2)c(Nc2nc3ccccc3nc2NS(=O)(=O)c2ccc(CN(C)C)cc2)c1
0.12	COc1ccc(CCCO)c(Nc2nc3ccccc3nc2NS(=O)(=O)CCCS(C)(=O)=O)c1
0.13	COc1ccc(CCCO)c(Nc2nc3ccccc3nc2NS(=O)(=O)c2c(C)noc2C)c1
3.1	COc1cc(Nc2nc3ccccc3nc2NS(=O)(=O)c2cccnc2)cc(C(=O)N2CCOCC2)c1
0.072	COc1ccc(CCCO)c(Nc2nc3ccccc3nc2NS(=O)(=O)C(C)C)c1
